Assay results from US11980600B2, “Diagnostic assay and treatment for preeclampsia” (MIRZYME THERAPEUTICS LIMITED, priority 2015, dated 2024).

Tests used:
[1] = test system: Ad-sFlt-1 injected Hmox1+/− pregnant mice; assay: Rescue of preeclampsia phenotype in timed pregnant Hmox1+/- mice injected with Ad-sFlt-1; assay type: in vivo; conditions: for signs of preeclampsia overall: Ad-sFlt-1, agent given alone; for average fetal weight / fetal resorption rate / mean arterial blood pressure (MAP) / hypertension / proteinuria (24 h urinary albumin:creatinine ratio): Ad-sFlt-1, day 18 of gestation
Description: Pregnant mice studies were carried out ten to twelve-week-old Hmox1^+/− mice and Hmox1^+/+ mice or wild-type C57/B16 mice. The first day of pregnancy (E0.5) was defined by the presence of a vaginal plug the following morning. On E10.5 (second trimester) pregnant mice were injected with 1×10^9 PFU of Ad-sFlt-1 or Ad-CMV (control) adenovirus by injection into the tail vein. For RUPP study, on day 13 of gestation, time pregnant C57/Bl6 mice were anesthetized. An incision was made down the midline of the body and the abdominal aorta was isolated. The vessel was then restricted with 7.0 suture tied around a blunt needle (approximate diameter of 1 mm^2) placed on the aorta. The needle was then removed. Right ovarian artery was restricted with 7.0 suture. The incisions were closed and the mice were allowed to recover for five days. For the low-dose sFlt-1 experiment, 1×10^8 PFU of adenovirus expressing sFlt-1 was used. On E17.5 mice were individually placed in metabolic cages for 24 hours and arterial blood pressure was measured at E18.5 as described previously (Wang et al. 2013). In brief, mice were anesthetized by using a ketamine/xylazine cocktail, and the carotid artery was isolated and cannulated with a Millar 1-French Mikro-Tip pressure catheter connected to a pressure transducer (ADInstruments Ltd, Oxford, UK). After 30 minutes of blood pressure stabilization, arterial pressure was recorded and averaged over an additional 10-minute period. Following measurements, blood sampling was undertaken, the animals were euthanized, and their kidneys, livers, and placentas were collected. The live fetuses and placentas were counted and weighed. All experimentation was conducted in accordance with the United Kingdom Animals (Scientific Procedures) Act, 1986 with the use of procedures approved by the University Ethical Review Committee.
(§1) Urinary albumin was determined using Albuwell-M kits (Exocell Inc, Philadelphia, PA). Enzyme-linked immunosorbent assay kits for human and murine sFlt-1, KIM-1, and PIGF were obtained from R&D Systems and performed according to the manufacturer's specifications.

[2] = test system: Ad-sFlt-1 injected Hmox1−/− mice; assay: Co-treatment rescue study of renal injury in non-pregnant Hmox1-/- mice injected with Ad-sFlt-1; assay type: in vivo; conditions: for proteinuria (24 h urinary albumin:creatinine ratio) / urinary KIM-1 levels: high sFlt-1; for renal glomerulosclerosis and mesangiolysis (glomerular histology): high sFlt-1, nor-NOHA daily i.p., L-arginine 25 g/L in drinking water
Description: Non-pregnant studies were carried out twelve-week-old Hmox1^−/− mice and Hmox1^+/+ mice. Animals were injected with 1×10^9 PFU of Ad-sFlt-1 or Ad-CMV (control) adenovirus by injection into the tail vein. Nine days after adenovirus administration, mice were individually placed in metabolic cages for 24 hours. Body weight, food and water intake, and urine volume were measured. Following urine measurements, blood sampling was undertaken on day 10, the animals were euthanized, and their kidneys and livers were collected for further analysis. Co-treatment rescue studies using arginase inhibitor and/or L-arginine supplementation were also undertaken in non-pregnant Hmox1^−/− mice and Hmox1^+/+ animals. Mice were injected intraperitoneally with nor-NOHA (Bachem, Bubendorf, Switzerland) daily. L-arginine (Sigma-Aldrich, St. Louis, MO) was given to the animals by supplementing the drinking water with 25 g/L one week before the Ad-sFlt-1 adenovirus injection and until the end of the study.
as §1
Human and murine placental tissues were prepared for immunohistochemistry as previously described. Immunohistochemistry was performed by using antibodies to Arginase-1, Ass1, Asl, and 3-nitrotyrosine. The following antibodies were used: (1) anti-arginase-1 antibody (1:50, Genetex); (2) anti-argininosuccinate synthase (1:100), Abcam); (3) anti-argininosuccinate lyase (1:100, Abcam) and (4) anti-3-Nitrotyrosine (1:100 dilution, Abcam). Sections from mouse kidneys or human placental biopsies were rehydrated, blocked with the use of normal serum, and incubated with primary antibody for 2 hours at room temperature. Visualization was performed by using a Vectastain ABC kit, with DAB. Slides were counterstained with hematoxylin. The staining was analysed by using a Nikon inverted microscope and Image Pro-Plus image analysis software.

| SMILES | signs of preeclampsia overall [1] | average fetal weight [1] | fetal resorption rate [1] | mean arterial blood pressure (MAP) / hypertension [1] | proteinuria (24 h urinary albumin:creatinine ratio) [1] | proteinuria (24 h urinary albumin:creatinine ratio) [2] | urinary KIM-1 levels [2] | renal glomerulosclerosis and mesangiolysis (glomerular histology) [2] |
| --- | --- | --- | --- | --- | --- | --- | --- | --- |
| N=C(N)NCCC[C@H](N)C(=O)O [L-arginine] | failed to abolish all signs of preeclampsia | no significant improvement | no significant improvement | significantly reduced | no significant improvements | improvements were absent | improvements were absent | improvements were absent |
| N=C(NO)NCC[C@H](N)C(=O)O [nor-NOHA, N-w-hydroxy-L-nor-arginine] | failed to abolish all signs of preeclampsia | no significant effect | reduced | no significant effect | no significant improvements | improvements were absent | improvements were absent | improvements were absent |
